# Reference: ChEMBL document CHEMBL1201862, “PubChem BioAssay data set” (2004)
# Active and inactive are the calls of the source.
# What was measured:
# [1] = tested on: Streptococcus sp. 'group A'; assay: growth inhibition of control SK(-) GAS strain, dose response, counter-screen for streptokinase expression inhibitor project, luminescence, kanamycin, BacTiterGlo, confirmation (AID 1900); type: functional, organism-based
# [2] = biological target: T1, Runt-related transcription factor 1/Core-binding factor subunit beta (Homo sapiens, UniProt Q01196+Q13951); assay: inhibitors of RUNX1 Runt–CBFb-SMMHC binding, biochemical, TR-FRET (AID 1438); type: protein assay
# T1 sequence (Q01196 whole entry, the tested form may be a part): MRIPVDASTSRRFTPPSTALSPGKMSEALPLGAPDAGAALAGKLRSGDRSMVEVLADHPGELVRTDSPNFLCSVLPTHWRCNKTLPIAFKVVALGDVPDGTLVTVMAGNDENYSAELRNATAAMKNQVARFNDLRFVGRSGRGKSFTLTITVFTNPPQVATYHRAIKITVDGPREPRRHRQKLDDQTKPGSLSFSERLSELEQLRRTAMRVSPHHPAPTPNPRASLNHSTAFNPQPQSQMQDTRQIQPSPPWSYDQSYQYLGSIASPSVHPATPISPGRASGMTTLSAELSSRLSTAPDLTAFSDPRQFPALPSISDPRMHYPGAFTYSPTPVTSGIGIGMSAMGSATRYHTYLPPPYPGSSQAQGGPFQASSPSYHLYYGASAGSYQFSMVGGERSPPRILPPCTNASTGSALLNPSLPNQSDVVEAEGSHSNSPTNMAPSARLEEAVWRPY
# T1 sequence (Q13951 whole entry, the tested form may be a part): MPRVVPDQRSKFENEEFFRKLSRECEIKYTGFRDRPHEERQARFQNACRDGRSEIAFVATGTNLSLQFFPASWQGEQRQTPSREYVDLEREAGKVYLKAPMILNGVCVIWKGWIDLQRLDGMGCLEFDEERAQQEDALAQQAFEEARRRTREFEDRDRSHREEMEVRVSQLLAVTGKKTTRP
# [3] = biological target: T1, Runt-related transcription factor 1/Core-binding factor subunit beta; assay: inhibitors of RUNX1 Runt–CBFb-SMMHC binding, primary screen, biochemical, FRET, Cerulean-Runt, Venus-CBFb-SMMHC, uHTS (AID 1434); type: protein assay;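 further: partner is the CBFb-SMMHC leukemia fusion protein rather than wild-type CBFb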
# Streptococcus = assay: Group A Streptococcus viability loss, dose response, counter-screen for streptokinase expression inhibitor project, luminescence, BacTiterGlo (AID 1915); type: functional, organism-based;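 further: potency for reduction of bacterial viability or growth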
# Mucolipin-3 = Mucolipin-3 (Homo sapiens, UniProt Q8TDD5); assay: Fluorescence counterscreen assay for […] agonists: dose response cell-based high-throughput screening assay to identify agonists of the transient receptor potential channel ML3 (TRPML3). [Related pubchem assays: 1424, 1448 ]; type: functional
# Ion channel NompC = Ion channel NompC (Danio rerio, UniProt Q7T1G6); assay: Dose response cell-based high-throughput screening assay for agonists of the transient receptor potential channel N1 (TRPN1). [Related pubchem assays (depositor defined):AID1424, AID1448]; type: functional
# [4] = inhibitors of intracellular T. cruzi replication, confirmation, NIH3T3 host cells, beta-gal luminescence (AID 2044); type: functional, cell-based;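 further: intracellular parasites grown in NIH/3T3 mouse fibroblasts as host cells; luminescent beta-galactosidase reporter signal from transgenic T. cruzi replicating inside host cells; inhibitors lower the luminescence signal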
# Cytochrome P450 2D6 = Cytochrome P450 2D6 (Homo sapiens, UniProt P10635);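 further: CYP2D6 member of a cytochrome P450 panel assay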
# [5] = Luminescence Cell-Based Dose Retest to Confirm Inhibitors of Cancer Stem Cells. [Related pubchem assays (depositor defined):AID2717, AID2721]; type: functional; conditions: Homo sapiens
# Cytochrome P450 3A4 = Cytochrome P450 3A4 (Homo sapiens, UniProt P08684);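 further: CYP3A4 tested as one member of a cytochrome P450 panel screen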
# Chain of Cytochrome P450 3A4 (P08684 whole entry): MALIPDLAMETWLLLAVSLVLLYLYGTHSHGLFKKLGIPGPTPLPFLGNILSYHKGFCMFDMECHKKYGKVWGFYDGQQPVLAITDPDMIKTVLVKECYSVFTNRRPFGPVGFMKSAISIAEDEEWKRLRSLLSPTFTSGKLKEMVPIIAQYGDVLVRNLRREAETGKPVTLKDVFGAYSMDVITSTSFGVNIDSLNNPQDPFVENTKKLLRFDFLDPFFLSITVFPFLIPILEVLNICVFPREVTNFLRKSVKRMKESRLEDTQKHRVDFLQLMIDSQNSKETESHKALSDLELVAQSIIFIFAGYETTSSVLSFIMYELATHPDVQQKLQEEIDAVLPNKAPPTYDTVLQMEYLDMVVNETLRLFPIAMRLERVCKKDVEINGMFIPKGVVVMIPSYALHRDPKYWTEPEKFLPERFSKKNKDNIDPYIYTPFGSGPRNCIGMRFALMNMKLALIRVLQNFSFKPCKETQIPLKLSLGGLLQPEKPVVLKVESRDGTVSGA
# [6] = cytotoxicity toward NIH3T3 fibroblasts, dose response, counter-screen, cell-based, ATP luminescence, mouse fibroblasts (AID 2010); type: functional;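 further: cells exposed to compound for about 90 hours before reading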
# INS1 = assay: beta cell apoptosis inhibitors, cytokine rescue, dose response, luminescence, retest (AID 449756); type: functional, cell-based; conditions: Rattus norvegicus;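 further: cell death triggered by IL-1 beta plus TNF-alpha plus IFN-gamma mixture; protective hits raise ATP signal compared with cytokine alone wells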
# [7] = biological target: Intestinal-type alkaline phosphatase (Homo sapiens, UniProt P09923); assay: activation of human intestinal alkaline phosphatase – biochemical, dose response (AID 488873); type: functional
# Chain of Intestinal-type alkaline phosphatase (Homo sapiens, UniProt P09923) (P09923 whole entry): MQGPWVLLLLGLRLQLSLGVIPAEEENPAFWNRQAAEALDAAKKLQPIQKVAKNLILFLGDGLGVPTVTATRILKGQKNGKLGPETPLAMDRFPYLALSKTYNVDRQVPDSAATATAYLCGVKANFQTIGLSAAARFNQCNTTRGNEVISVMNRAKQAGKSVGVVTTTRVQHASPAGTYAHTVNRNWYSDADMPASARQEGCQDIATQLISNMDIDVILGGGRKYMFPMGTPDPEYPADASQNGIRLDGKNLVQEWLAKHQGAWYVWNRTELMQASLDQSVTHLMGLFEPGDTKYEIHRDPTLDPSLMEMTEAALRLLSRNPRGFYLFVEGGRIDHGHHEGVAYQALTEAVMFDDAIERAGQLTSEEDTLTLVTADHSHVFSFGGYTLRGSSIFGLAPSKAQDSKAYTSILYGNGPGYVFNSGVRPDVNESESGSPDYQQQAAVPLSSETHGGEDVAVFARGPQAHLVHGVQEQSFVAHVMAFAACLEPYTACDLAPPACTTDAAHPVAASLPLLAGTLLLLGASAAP
# [8] = biological target: Intestinal-type alkaline phosphatase (Mus musculus, UniProt P24822); assay: mouse intestinal alkaline phosphatase activators, dose response, biochemical, luminescence, uHTS hits (AID 488783); type: functional
# Large T antigen = Large T antigen (Simian virus 40, UniProt P03070); type: functional, Betapolyomavirus macacae;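 further: Confirmatory-stage PubChem screen for compounds that inhibit SV40 T antigen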
# Vero = Vero cell cytotoxicity, cytotoxicity control for flavivirus capping enzyme inhibitors (AID 588742); type: functional; conditions: Chlorocebus sabaeus
# [9] = biological target: T2, Alkaline phosphatase, tissue-nonspecific isozyme (Homo sapiens, UniProt P05186); assay: TNAP enzyme activators, dose response, selectivity assay for mouse IAP activator project, biochemical, TNAP isozyme, mouse IAP uHTS hits (AID 488880); type: functional
# T2 sequence (P05186 whole entry): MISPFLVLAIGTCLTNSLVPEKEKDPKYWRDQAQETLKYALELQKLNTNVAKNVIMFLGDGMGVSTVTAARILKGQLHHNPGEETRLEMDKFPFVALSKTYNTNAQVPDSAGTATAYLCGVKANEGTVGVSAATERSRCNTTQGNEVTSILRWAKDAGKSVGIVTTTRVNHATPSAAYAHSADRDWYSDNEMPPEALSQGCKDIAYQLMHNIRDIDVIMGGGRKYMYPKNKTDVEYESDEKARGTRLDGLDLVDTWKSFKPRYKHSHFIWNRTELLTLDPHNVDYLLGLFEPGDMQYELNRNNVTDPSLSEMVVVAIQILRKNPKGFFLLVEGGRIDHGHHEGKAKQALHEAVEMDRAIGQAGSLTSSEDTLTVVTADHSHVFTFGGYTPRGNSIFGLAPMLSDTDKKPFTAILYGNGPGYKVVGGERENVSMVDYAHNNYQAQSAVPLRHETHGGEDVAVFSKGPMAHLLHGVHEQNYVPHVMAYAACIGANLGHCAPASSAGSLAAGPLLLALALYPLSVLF
# [10] = biological target: T3, Kappa-type opioid receptor (Homo sapiens, UniProt P41145); type: functional
# T3 sequence (P41145 whole entry): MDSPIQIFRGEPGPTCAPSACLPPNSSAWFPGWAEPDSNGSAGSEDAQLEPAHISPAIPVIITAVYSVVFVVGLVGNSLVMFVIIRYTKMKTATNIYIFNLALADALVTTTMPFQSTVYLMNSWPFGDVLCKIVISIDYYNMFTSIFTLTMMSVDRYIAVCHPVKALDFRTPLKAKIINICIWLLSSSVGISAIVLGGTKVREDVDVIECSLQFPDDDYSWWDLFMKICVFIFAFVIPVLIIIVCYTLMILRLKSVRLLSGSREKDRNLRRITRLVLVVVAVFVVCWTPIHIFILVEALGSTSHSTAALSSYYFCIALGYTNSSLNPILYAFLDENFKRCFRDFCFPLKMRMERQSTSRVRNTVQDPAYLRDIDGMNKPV
# [11] = biological target: T4, Delta-type opioid receptor (Homo sapiens, UniProt P41143); assay: HTS Image-Based Screen for Agonists of the DOR Receptor. [Related pubchem assays (depositor defined):AID1777, AID1786, AID2133]; type: functional
# T4 sequence (P41143 whole entry): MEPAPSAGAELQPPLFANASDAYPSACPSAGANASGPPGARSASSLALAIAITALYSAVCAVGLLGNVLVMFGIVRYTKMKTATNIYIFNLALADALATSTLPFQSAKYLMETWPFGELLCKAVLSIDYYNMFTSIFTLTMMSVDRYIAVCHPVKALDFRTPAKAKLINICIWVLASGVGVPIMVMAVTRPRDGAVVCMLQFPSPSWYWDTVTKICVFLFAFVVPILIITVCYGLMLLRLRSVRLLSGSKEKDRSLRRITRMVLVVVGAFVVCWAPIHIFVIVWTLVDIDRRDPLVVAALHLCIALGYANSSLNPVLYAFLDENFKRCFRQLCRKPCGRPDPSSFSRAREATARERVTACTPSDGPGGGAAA
# [12] = biological target: T3, Kappa-type opioid receptor; type: functional; remark: listed apart in the source
# [13] = NIH-3T3 fibroblast cytotoxicity, dose response, cytotoxicity control, cell-based, fluorescence, Alamar Blue, secondary assay (AID 2327); type: functional;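 further: NIH-3T3 mouse fibroblasts cultured with fluconazole at 8 µg/mL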
# [14] = C. albicans growth with fluconazole, confirmation, fluorescence, retest (AID 2467); type: functional, cell-based
# [15] = biological target: Heat shock protein HSP 90-alpha (Homo sapiens, UniProt P07900); type: functional, organism-based
# HEK293 = assay: inhibitors of LMP1-driven NF-kB reporter, dose response, cell-based, HEK293, luciferase, cherry-pick (AID 588343); type: functional; conditions: Homo sapiens
# [16] = biological target: ATP-dependent molecular chaperone HSP82 (Candida albicans (strain WO-1) (Yeast), UniProt C4YTQ8); assay: loss of DOC-induced GRE-beta-galactosidase reporter signal, dose response, Hsp90 inhibitor project, S. cerevisiae, luminescence (AID 2400); type: functional, cell-based;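 further: beta-galactosidase luminescence from glucocorticoid response element reporter as proxy for Hsp90 function; inhibitor potency where signal loss means Hsp90 inhibition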
# Chain of ATP-dependent molecular chaperone HSP82 (C4YTQ8 whole entry): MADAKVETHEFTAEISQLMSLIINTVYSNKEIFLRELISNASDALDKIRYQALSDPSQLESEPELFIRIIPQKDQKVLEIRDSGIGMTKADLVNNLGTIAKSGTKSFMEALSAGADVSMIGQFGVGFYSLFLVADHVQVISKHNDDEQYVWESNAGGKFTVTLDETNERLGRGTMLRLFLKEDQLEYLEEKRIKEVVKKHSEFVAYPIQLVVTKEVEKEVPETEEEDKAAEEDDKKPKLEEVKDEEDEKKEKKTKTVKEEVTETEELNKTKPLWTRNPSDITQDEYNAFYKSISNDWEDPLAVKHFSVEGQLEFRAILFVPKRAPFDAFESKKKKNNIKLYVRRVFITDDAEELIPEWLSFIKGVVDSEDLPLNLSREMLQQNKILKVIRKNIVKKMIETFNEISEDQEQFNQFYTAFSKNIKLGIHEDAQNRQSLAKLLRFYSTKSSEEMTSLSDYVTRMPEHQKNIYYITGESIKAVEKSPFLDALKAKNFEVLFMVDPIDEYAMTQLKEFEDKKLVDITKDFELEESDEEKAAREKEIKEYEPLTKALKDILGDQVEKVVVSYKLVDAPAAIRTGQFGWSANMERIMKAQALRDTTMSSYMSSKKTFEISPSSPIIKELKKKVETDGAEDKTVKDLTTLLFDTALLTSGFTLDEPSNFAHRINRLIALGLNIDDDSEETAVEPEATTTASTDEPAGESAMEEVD
# [17] = biological target: T5, Serine/threonine-protein phosphatase (Candida dubliniensis (strain CD36 / CBS 7987 / NCPF 3949 / NRRLY-17841) (Yeast), UniProt B9W6M3); assay: calcineurin pathway inhibitors in yeast reporter, dose response, S. cerevisiae, CDRE-lacZ, luminescence, secondary (AID 2388); type: functional, cell-based;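 further: yeast reporter cells carrying a calcineurin-responsive lacZ construct stimulated with calcium chloride; luminescent beta-galactosidase reporter signal in whole cells rather than isolated phosphatase activity; potency for inhibition where a drop in reporter signal means calcineurin blockade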
# T5 sequence (B9W6M3 whole entry): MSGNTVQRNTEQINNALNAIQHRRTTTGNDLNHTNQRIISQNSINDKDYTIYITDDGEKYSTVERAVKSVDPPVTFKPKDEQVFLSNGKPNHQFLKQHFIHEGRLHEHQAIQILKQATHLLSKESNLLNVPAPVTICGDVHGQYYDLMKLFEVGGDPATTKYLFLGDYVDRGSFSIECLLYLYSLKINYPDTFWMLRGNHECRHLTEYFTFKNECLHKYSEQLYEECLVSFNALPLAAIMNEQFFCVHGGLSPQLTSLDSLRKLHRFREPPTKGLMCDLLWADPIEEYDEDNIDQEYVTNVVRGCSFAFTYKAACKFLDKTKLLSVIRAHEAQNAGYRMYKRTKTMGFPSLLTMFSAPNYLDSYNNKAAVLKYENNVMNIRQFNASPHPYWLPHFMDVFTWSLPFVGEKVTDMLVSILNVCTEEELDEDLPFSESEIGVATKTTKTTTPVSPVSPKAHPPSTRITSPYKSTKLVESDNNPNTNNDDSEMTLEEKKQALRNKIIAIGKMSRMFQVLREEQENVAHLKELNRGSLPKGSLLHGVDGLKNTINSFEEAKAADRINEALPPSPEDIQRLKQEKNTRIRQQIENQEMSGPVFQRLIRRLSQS
# Beta-galactosidase = Beta-galactosidase (Escherichia coli, UniProt Q8VNN2); type: functional
# Chain of Beta-galactosidase (Q8VNN2 whole entry): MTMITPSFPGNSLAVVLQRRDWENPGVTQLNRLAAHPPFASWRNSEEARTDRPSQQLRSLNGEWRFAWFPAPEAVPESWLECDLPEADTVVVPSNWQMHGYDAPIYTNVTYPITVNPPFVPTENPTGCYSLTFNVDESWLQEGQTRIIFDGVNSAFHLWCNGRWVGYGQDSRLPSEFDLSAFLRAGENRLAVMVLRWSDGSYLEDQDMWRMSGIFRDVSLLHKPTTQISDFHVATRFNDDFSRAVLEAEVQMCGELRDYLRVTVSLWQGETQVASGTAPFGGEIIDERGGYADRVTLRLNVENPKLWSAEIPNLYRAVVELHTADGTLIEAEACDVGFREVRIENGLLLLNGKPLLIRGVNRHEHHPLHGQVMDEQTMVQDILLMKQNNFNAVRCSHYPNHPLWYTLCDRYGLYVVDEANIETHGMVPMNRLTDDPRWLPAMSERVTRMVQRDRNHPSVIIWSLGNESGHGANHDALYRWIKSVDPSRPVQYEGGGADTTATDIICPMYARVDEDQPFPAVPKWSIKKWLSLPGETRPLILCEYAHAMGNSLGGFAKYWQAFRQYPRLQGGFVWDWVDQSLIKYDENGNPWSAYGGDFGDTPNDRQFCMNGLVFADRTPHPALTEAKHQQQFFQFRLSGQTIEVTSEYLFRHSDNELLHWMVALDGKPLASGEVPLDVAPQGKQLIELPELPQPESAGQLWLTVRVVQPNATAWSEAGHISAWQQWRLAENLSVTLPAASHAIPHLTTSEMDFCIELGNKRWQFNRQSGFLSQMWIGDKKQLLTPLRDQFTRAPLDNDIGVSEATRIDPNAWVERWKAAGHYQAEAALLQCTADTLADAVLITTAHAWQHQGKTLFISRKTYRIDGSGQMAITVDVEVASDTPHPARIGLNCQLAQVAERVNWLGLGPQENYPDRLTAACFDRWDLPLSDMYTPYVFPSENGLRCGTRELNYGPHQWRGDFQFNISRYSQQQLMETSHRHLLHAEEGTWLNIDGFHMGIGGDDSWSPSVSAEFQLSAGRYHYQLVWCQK
# Mu-type opioid receptor = Mu-type opioid receptor (Homo sapiens, UniProt P35372); assay: HTS Image-Based Screen for Agonists of the MOR Receptor. [Related pubchem assays (depositor defined):AID1777, AID1785, AID1786, AID2133]; type: functional;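 further: imaging of beta-arrestin GFP recruitment into spots after receptor activation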
# Chain of Mu-type opioid receptor (P35372 whole entry): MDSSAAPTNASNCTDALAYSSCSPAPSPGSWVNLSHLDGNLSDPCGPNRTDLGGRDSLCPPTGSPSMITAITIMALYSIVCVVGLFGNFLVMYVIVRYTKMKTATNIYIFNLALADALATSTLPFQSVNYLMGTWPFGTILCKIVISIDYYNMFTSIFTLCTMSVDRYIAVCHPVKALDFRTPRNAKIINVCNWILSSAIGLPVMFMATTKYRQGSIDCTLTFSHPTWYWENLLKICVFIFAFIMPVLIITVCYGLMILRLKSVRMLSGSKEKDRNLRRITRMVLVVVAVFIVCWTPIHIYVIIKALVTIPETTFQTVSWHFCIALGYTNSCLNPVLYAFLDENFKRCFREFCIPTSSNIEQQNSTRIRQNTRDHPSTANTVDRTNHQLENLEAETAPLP
# [18] = biological target: T4, Delta-type opioid receptor; assay: HTS Image-Based Screen for Antagonists of the DOR Receptor. [Related pubchem assays (depositor defined):AID1777, AID1785, AID1786, AID2133]; type: functional
# [19] = biological target: T1, Runt-related transcription factor 1/Core-binding factor subunit beta; assay: Confirmation of compounds inhibiting the binding between the RUNX1 Runt domain and CBFb-SMMHC via a time resolved fluorescence resonance energy transfer (TR-FRET) assay. [Related pubchem assays (depositor defined):AID1434, AID1438, AID1496, AID1560, AID1645]; type: protein assay
# [20] = biological target: T1, Runt-related transcription factor 1/Core-binding factor subunit beta; assay: Confirmation of compounds inhibiting the binding between the RUNX1 Runt domain and CBFb-SMMHC via a fluorescence resonance energy transfer (FRET) assay. [Related pubchem assays (depositor defined):AID1434, AID1438, AID1496, AID1550, AID1645]; type: protein assay
# [21] = decrease of PhoP-driven GFP reporter signal, S. Typhimurium, dose response, PhoP regulon inhibitor project, purified and synthesized compounds, set 2 (AID 2831); type: functional
smiles,measurement,setting,value
COCCNC(=O)c1c(NC(=O)c2ccc(Br)o2)n(Cc2ccccc2)c2nc3ccccc3nc12,EC50,[1],1.9 µM (active)
same,IC50,[2],> 100 µM (inactive)
same,IC50,[3],2.14 µM (active)
same,EC50,Streptococcus,4.36 µM (active)
COC(=O)c1cccc(NC(=O)Nc2ccc(Cl)c(Cl)c2)c1,EC50,Mucolipin-3,> 29.9 µM (not active)
same,EC50,Ion channel NompC,> 29.9 µM (inactive)
same,EC50,[4],2.15 µM (active)
same,AC50,Cytochrome P450 2D6,22.4 µM (inconclusive)
same,AC50,[5],2.77 µM (active)
same,AC50,Cytochrome P450 3A4,22.4 µM (inconclusive)
same,EC50,[6],> 60 µM (inconclusive)
same,AC50,INS1,6.38 µM (active)
O=C(CN1C(=O)/C(=C/c2ccco2)SC1=S)NC1CCS(=O)(=O)C1 (centres undefined),EC50,[7],> 100 µM (inactive)
same,EC50,[8],2.03 µM (active)
same,IC50,Large T antigen,85 µM (active)
same,CC50,Vero,> 40 µM (active)
same,EC50,[9],> 100 µM (inactive)
O=C(Nc1nnc(SCc2ccc(F)cc2)s1)c1ccccn1,IC50,[10],> 32 µM
same,EC50,[1],0.663 µM (active)
same,EC50,[11],> 32 µM (inactive)
same,IC50,[12],4.45 µM (active)
same,EC50,[13],74.7 µM (active)
same,EC50,[14],1.42 µM (active)
same,AC50,[15],3.56 µM (active)
same,AC50,HEK293,1.97 µM (active)
same,EC50,[16],4.97 µM (active)
same,EC50,[17],> 180 µM (inactive)
same,EC50,Beta-galactosidase,> 31.5 µM (inactive)
same,EC50,Mu-type opioid receptor,> 32 µM (inactive)
same,IC50,[18],> 32 µM (inactive)
same,EC50,Streptococcus,2.54 µM (active)
Cc1cc(C=NNC(=O)Cn2c3ccccc3c(=O)c3ccccc32)c(C)n1-c1ccc(Cl)cc1,IC50,[19],13.6 µM (active)
same,IC50,[20],3.58 µM (active)
O=C(Nc1ccc(Cl)cc1)N1CCCN(Cc2ccccc2F)C1,IC50,[21],> 125 µM (active)
